The values that follow come from US9315518B2, “Imidazopyridin-2-one derivatives” (Merck Sharp & Dohme Corp., priority 2011, dated 2016).

recombinant human mGluR2, sequence (Q14416 19-872): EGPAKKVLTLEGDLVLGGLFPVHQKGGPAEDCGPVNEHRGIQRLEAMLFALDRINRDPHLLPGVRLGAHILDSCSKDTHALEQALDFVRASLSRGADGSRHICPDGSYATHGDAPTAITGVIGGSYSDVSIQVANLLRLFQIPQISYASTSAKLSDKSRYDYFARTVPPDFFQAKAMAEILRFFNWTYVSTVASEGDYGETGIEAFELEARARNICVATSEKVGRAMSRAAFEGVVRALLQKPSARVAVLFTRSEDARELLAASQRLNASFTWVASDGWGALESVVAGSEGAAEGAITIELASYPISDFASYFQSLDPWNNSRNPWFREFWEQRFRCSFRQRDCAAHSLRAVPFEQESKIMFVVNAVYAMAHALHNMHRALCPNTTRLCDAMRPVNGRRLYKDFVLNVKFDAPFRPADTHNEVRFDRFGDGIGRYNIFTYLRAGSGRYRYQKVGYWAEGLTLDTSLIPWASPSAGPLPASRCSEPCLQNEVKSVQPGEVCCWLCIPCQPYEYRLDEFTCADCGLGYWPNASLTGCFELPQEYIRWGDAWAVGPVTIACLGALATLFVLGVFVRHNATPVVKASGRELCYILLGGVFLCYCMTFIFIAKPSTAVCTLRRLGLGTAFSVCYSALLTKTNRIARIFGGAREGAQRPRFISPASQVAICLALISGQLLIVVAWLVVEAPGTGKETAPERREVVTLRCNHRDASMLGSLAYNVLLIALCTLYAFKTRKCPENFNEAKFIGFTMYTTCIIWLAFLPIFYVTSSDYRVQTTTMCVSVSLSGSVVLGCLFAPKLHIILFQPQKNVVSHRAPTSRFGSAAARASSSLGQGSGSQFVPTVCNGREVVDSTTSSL

The assay addresses recombinant human mGluR2 (Homo sapiens (Human), UniProt Q14416). In words: FLIPR Ca2+ mobilization assay, potentiation of glutamate response. The class given is cell-based. The settings on record: CHO dhfr- cells expressing human mGluR2 and Gα16; potentiation with EC20 glutamate (900 nM); read-out: hFLIPR pot. EC50. How it is done: Inhibition constants are determined as follows. The compounds of the present invention may be tested in a […] (FLIPR) based assay. This assay is a common functional assay to monitor Ca^2+ mobilization in whole cells expressing recombinant receptor coupled with a promiscuous G-protein. CHO dhfr-cells stably expressing recombinant human mGluR2 and Gα16 loaded with Fluo-4 AM (Invitrogen, Carlsbad Calif.) are treated with dose responses of compounds and the Ca^2+ response is monitored on a FLIPR384 (Molecular Devices, Sunnydale Calif.) for agonist activity. The potentiation response is monitored after a subsequent addition of an EC20 concentration of glutamate (900 nM). The maximum calcium response at each concentration of compound for agonist or potentiation are plotted as dose responses and the curves are fitted with a four parameters logistic equation giving EC50 and Hill coefficient using the iterative non linear curve fitting software program.
On the technique in general: Calcium flux is commonly read through the fluorescence of an indicator in the cells.
In the case of `Cn1c(=O)n(CC(C)(C)C)c2ccc(C3=CC4CCC3CN4C(=O)c3csnn3)nc21` (stereo not shown) [Compound 2-8, 1-(2,2-dimethylpropyl)-3-methyl-5-[2-(1,2,3-thiadiazol-4-ylcarbonyl)-2-azabicyclo[2.2.2]oct-5-en-5-yl]-1,3-dihydro-2H-imidazo[4,5-b]pyridin-2-one], the concentration giving a half-maximal response (EC50) was determined as 0.0281 µM.
Next, `Cn1c(=O)n(CC(C)(C)C)c2ccc(C3=CC4CCC3CN4C(=O)c3cccnc3)nc21` (stereo not shown) [Compound 2-9, 1-(2,2-dimethylpropyl)-3-methyl-5-[2-(pyridin-3-ylcarbonyl)-2-azabicyclo[2.2.2]oct-5-en-5-yl]-1,3-dihydro-2H-imidazo[4,5-b]pyridin-2-one]: 0.1 µM; `Cn1c(=O)n(CC(C)(C)C)c2ccc(C3=CC4CCC3CN4C(=O)C3CC3)nc21` (stereo not shown) [Compound 2-16, 5-[2-(cyclopropylcarbonyl)-2-azabicyclo[2.2.2]oct-5-en-5-yl]-1-(2,2-dimethylpropyl)-3-methyl-1,3-dihydro-2H-imidazo[4,5-b]pyridin-2-one]: 0.0641 µM; `Cn1c(=O)n(CC(C)(C)C)c2ccc(C3=CC4CCC3CN4C(=O)Cn3cncn3)nc21` (stereo not shown) [Compound 2-22, 1-(2,2-dimethylpropyl)-3-methyl-5-[2-(1H-1,2,4-triazol-1-ylacetyl)-2-azabicyclo[2.2.2]oct-5-en-5-yl]-1,3-dihydro-2H-imidazo[4,5-b]pyridin-2-one]: 0.0561 µM.
Next, `Cn1c(=O)n(CC(C)(C)C)c2ccc(C3=CC4CCC3CN4C(=O)c3ncco3)nc21` (stereo not shown) [Compound 2-34, 1-(2,2-dimethylpropyl)-3-methyl-5-[2-(1,3-oxazol-2-ylcarbonyl)-2-azabicyclo[2.2.2]oct-5-en-5-yl]-1,3-dihydro-2H-imidazo[4,5-b]pyridin-2-one]: 0.0228 µM; `Cn1c(=O)n(CC(C)(C)C)c2ccc(C3CC4CCC3CN4C(=O)c3ccon3)nc21` (stereo not shown) [Compound 5-2, 1-(2,2-Dimethylpropyl)-5-[2-(isoxazol-3-ylcarbonyl)-2-azabicyclo[2.2.2]-oct-5-yl]-3-methyl-1,3-dihydro-2H-imidazo[4,5-b]pyridin-2-one]: 0.322 µM; `Cn1c(=O)n(CC2CC2(F)F)c2ccc(C3=CC4CCC3CN4C(=O)c3ccon3)nc21` (stereo not shown) [Compound 6-4, 1-[(2,2-Difluorocyclopropyl)methyl]-5-[2-(isoxazol-3-ylcarbonyl)-2-azabicyclo-[2.2.2]oct-5-en-5-yl]-3-methyl-1,3-dihydro-2H-imidazo[4,5-b]pyridin-2-one]: 0.029 µM.
Next, `Cn1c(=O)n(CC(C)(C)C)c2ccc(C3=CC4CN(C(=O)C5(O)CCN(C(=O)OC(C)(C)C)C5)CC4C3)nc21` (stereo not shown) [Compound 8-6, tert-butyl 3-({5-[1-(2,2-dimethylpropyl)-3-methyl-2-oxo-2,3-dihydro-1H-imidazo[4,5-b]pyridin-5-yl]-3,3a,4,6a-tetrahydrocyclopenta[c]pyrrol-2(1H)-yl}carbonyl)-3-hydroxypyrrolidine-1-carboxylate]: 0.513 µM.
As to `Cn1c(=O)n(CC(C)(C)C)c2ccc(C3=CC4CN(C(=O)CO)CC4C3)nc21` (stereo not shown) [Compound 8-9, 1-(2,2-dimethylpropyl)-5-[2-(hydroxyacetyl)-1,2,3,3a,4,6a-hexahydrocyclopenta[c]pyrrol-5-yl]-3-methyl-1,3-dihydro-2H-imidazo[4,5-b]pyridin-2-one], the concentration for a half-maximal effect (EC50) is 0.27 µM.
Next, `Cn1c(=O)n(CC(C)(C)C)c2ccc(C3=CC4CN(C(=O)C5(O)CCC5)CC4C3)nc21` (stereo not shown) [Compound 8-14, 1-(2,2-dimethylpropyl)-5-{2-[(1-hydroxycyclobutyl)carbonyl]-1,2,3,3a,4,6a-hexahydrocyclopenta[c]pyrrol-5-yl}-3-methyl-1,3-dihydro-2H-imidazo[4,5-b]pyridin-2-one]: 0.134 µM.
Next, `Cn1c(=O)n(CC(C)(C)C)c2ccc(C3=CC4CN(C(=O)c5ncco5)CC4C3)nc21` (stereo not shown) [Compound 8-38]: 0.0179 µM; `Cn1c(=O)n(CC(C)(C)C)c2ccc(C3CC4CN(C(=O)c5ncc[nH]5)CC4C3)nc21` (stereo not shown) [Compound 11-5, 1-(2,2-dimethylpropyl)-5-[2-(1H-imidazol-2-ylcarbonyl)octahydrocyclo-penta[c]pyrrol-5-yl]-3-methyl-1,3-dihydro-2H-imidazo[4,5-b]pyridin-2-one]: 0.391 µM; `Cn1c(=O)n(CC2CC2(F)F)c2ccc(C3=CC4CN(C(=O)c5ncco5)CC4C3)nc21` (stereo not shown) [Compound 14-6, 1-[(2,2-difluoro-cyclopropyl)methyl]-3-methyl-5-[2-(1,3-oxazol-2-ylcarbonyl)-1,2,3,3a,4,6a-hexahydrocyclo-penta[c]pyrrol-5-yl]-1,3-dihydro-2H-imidazo[4,5-b]pyridin-2-one]: 0.123 µM.
As for `Cn1c(=O)n(CC(C)(C)C)c2ccc(C3=CCC(C(=O)NCc4ncco4)CC3)nc21` (stereo not shown) [Compound 17-15, 4-[1-(2,2-dimethylpropyl)-3-methyl-2-oxo-2,3-dihydro-1H-imidazo[4,5-b]pyridin-5-yl]-N-(1,3-oxazol-2-ylmethyl)cyclohex-3-ene-1-carboxamide], the 50% effective concentration (EC50) is 0.594 µM.
As for `Cn1c(=O)n(CC(C)(C)C)c2ccc(C3=CCC(NC(=O)C4CCCO4)CC3)nc21` (stereo not shown) [Compound 17-20, N-{4-[1-(2,2-dimethylpropyl)-3-methyl-2-oxo-2,3-dihydro-1H-imidazo[4,5-b]pyridin-5-yl]cyclohex-3-en-1-yl}tetrahydrofuran-2-carboxamide], the figure is 0.333 µM.
As for `Cn1c(=O)n(CC(C)(C)C)c2ccc(C3CCC(C)(C)C(NC(=O)CCn4cncn4)C3)nc21` (stereo not shown) [Compound 18-10, N-{5-[1-(2,2-dimethylpropyl)-3-methyl-2-oxo-2,3-dihydro-1H-imidazo[4,5-b]pyridin-5-yl]-2,2-dimethylcyclohexyl}-3-(1H-1,2,4-triazol-1-yl)propanamide], the EC50 was 2.19 µM.
Next, `Cn1c(=O)n(CC(C)(C)C)c2ccc(C3CCC(C)(C)C(NC(=O)c4ccc(OC(F)(F)F)cc4)C3)nc21` (stereo not shown) [Compound 18-42, N-{5-[1-(2,2-dimethylpropyl)-3-methyl-2-oxo-2,3-dihydro-1H-imidazo[4,5-b]pyridin-5-yl]-2,2-dimethylcyclohexyl}-4-(trifluoro-methoxy)benzamide]: 0.986 µM; `Cn1c(=O)n(CC(C)(C)C)c2ccc(C3CCC(C)(C)C(NC(=O)c4cnsn4)C3)nc21` (stereo not shown) [Compound 18-200, N-{5-[1-(2,2-dimethylpropyl)-3-methyl-2-oxo-2,3-dihydro-1H-imidazo[4,5-b]pyridin-5-yl]-2,2-dimethylcyclohexyl}-1,2,5-thiadiazole-3-carboxamide]: 0.0432 µM; `Cn1cnc(S(=O)(=O)N2CCCC(c3ccc4c(n3)n(C)c(=O)n4CC(C)(C)C)C2)c1` (stereo not shown) [Compound 19-4, 1-(2,2-dimethylpropyl)-3-methyl-5-{1-[(1-methyl-1H-imidazol-4-yl)sulfonyl]piperidin-3-yl}-1,3-dihydro-2H-imidazo[4,5-b]pyridin-2-one]: 0.951 µM.
Next, `Cc1cccc(S(=O)(=O)NC2CC(c3ccc4c(n3)n(C)c(=O)n4CC(C)(C)C)CCC2(C)C)c1` (stereo not shown) [Compound 19-62, N-{5-[1-(2,2-dimethylpropyl)-3-methyl-2-oxo-2,3-dihydro-1H-imidazo[4,5-b]pyridin-5-yl]-2,2-dimethylcyclohexyl}-3-methylbenzenesulfonamide]: 0.116 µM; `CN1c2nc(C3=CC4CN(C(=O)C(C)(C)O)CC4C3)ccc2N(CC2CC2(F)F)S1(=O)=O` (stereo not shown) [Compound 24-7, 1-[5-{1-[(2,2-difluorocyclopropyl)methyl]-3-methyl-2,2-dioxido-1,3-dihydro[1,2,5]thiadiazolo[3,4-b]pyridin-5-yl}-3,3a,4,6a-tetrahydrocyclopenta [c]pyrrol-2(1H)-yl]-2-methyl-1-oxopropan-2-ol]: 0.0485 µM; `CN1c2nc(C3=CCN(C(=O)c4ccon4)C3)ccc2N(CC2CC2(F)F)S1(=O)=O` (stereo not shown) [Compound 24-20, 1-[(2,2-difluorocyclopropyl)methyl]-5-[1-(isoxazol-3-ylcarbonyl)-2,5-dihydro-1H-pyrrol-3-yl]-3-methyl-1,3-dihydro[1,2,5] thiadiazolo[3,4-b]pyridine 2,2-dioxide]: 0.177 µM.
Next, `CN1c2nc(C3CCCNC3)ccc2N(CC2CC2(F)F)S1(=O)=O` (stereo not shown) [Compound 25-5, 1-[(2,2-difluorocyclopropyl)methyl]-3-methyl-5-piperidin-3-yl-1,3-dihydro[1,2,5] thiadiazolo[3,4-b]pyridine 2,2-dioxide]: 0.359 µM; `CC1C(c2ccc3c(n2)N(C)S(=O)(=O)N3CC2CC2(F)F)C1C(C)(C)O` (stereo not shown) [Compound 34-3, 2-(2-{1-[(2,2-difluorocyclopropyl)methyl]-3-methyl-2,2-dihydro[1,2,5]thiadiazolo[3,4-b]pyridin-5-yl}-3-methylcyclopropyl) propan-2-ol]: 0.0144 µM.
As to `Cn1cnc(C(=O)NCCCCc2ccc3c(n2)n(C)c(=O)n3CC(C)(C)C)c1` [Compound 38-5, N-{4-[1-(2,2-dimethylpropyl)-3-methyl-2-oxo-2,3-dihydro-1H-imidazo[4,5-b]pyridin-5-yl]butyl}-1-methyl-1H-imidazole-4-carboxamide], the half-maximal effective concentration (EC50) stood at 1.18 µM.

As a reminder, the EC50 is the concentration needed to bring the measured effect to its halfway point.
